Measurements as given in ChEMBL document CHEMBL1201862, “PubChem BioAssay data set” (2004).
The source made the active and inactive calls.

Experiments:
[1] = biological target: Protein Tat (Human immunodeficiency virus type 1 group M subtype B (isolate HXB2)(HIV-1), UniProt P04608); format: functional;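 also: tat binding to TAR RNA read out by fluorescence polarization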
[2] = Luminescence-based cell-based high throughput dose response assay to identify activators of the DAF-12 from the parasite S. stercoralis (ssDAF-12).; format: functional
[3] = biological target: T1, Oxysterols receptor LXR-beta (Homo sapiens, UniProt P55055); assay: LXR agonists, Gal4 luciferase reporter, dose response, counter-screen for ssDAF-12 agonist project, cell-based, luminescence, HEK293, S. stercoralis campaign (AID 720737); format: functional; conditions: read-out: IC50 (the source's name)
T1 sequence (P55055 whole entry): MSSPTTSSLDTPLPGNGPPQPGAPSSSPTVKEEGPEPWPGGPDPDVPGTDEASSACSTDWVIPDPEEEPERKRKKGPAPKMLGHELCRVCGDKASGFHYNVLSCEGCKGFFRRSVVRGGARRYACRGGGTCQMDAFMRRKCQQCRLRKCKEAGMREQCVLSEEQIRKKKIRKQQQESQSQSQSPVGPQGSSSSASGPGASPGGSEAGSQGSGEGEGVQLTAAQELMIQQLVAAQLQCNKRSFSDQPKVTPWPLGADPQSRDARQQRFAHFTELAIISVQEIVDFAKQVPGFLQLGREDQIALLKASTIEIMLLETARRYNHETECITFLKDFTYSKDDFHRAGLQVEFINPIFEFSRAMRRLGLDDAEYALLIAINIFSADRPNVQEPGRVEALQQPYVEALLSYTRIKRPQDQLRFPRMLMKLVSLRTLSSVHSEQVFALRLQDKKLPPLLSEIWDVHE

[4] = IC50 of Artemis nuclease activity blockers – biochemical, fluorescence intensity, dose response (AID 720701); format: functional;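 also: Artemis endonuclease enzyme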
[5] = microbe, parasite or virus in culture; format: functional; conditions: Mycobacterium tuberculosis
[6] = cells
[7] = biological target: T1, Oxysterols receptor LXR-beta; format: functional, cell-based
[8] = reduced cellular PGC1a acetyl-lysine signal – cell-based, cherry-picked samples, dose response (AID 720514); format: functional;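 also: potency may reflect raised or lowered acetylation signal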
[9] = Counterscreen for AddAB inhibitors: absorbance-based bacterial cell-based high throughput dose response assay for inhibitors of bacterial viability. [Related pubchem assays (depositor defined):AID435030, AID449728, AID449731, AID488942, AID488955, AID488956]; format: functional
[10] = biological target: Caspase-6 (Homo sapiens, UniProt P55212); assay: inhibition of CASP6 peptide cleavage – biochemical, VEID-R110 fluorescence, cherry-pick, dose response (AID 720632)
Caspase-6, sequence (P55212 24-179 limits assumed): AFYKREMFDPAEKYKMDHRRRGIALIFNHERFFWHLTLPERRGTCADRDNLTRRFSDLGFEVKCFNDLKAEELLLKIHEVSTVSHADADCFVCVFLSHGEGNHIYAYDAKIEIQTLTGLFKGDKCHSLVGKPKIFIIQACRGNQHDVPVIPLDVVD
Caspase-6, sequence (P55212 194-293 limits assumed): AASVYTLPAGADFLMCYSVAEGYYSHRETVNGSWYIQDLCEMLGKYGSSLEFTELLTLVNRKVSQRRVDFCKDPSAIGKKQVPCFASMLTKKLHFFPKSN

[11] = biological target: Beta-galactosidase (Escherichia coli, UniProt Q8VNN2); assay: detection-enzyme interference by beta-gal modulators – biochemical, E. coli enzyme, set 3, artefact control for CCR6 antagonist project, dose response (AID 504712); format: functional
Beta-galactosidase, sequence (Q8VNN2 whole entry): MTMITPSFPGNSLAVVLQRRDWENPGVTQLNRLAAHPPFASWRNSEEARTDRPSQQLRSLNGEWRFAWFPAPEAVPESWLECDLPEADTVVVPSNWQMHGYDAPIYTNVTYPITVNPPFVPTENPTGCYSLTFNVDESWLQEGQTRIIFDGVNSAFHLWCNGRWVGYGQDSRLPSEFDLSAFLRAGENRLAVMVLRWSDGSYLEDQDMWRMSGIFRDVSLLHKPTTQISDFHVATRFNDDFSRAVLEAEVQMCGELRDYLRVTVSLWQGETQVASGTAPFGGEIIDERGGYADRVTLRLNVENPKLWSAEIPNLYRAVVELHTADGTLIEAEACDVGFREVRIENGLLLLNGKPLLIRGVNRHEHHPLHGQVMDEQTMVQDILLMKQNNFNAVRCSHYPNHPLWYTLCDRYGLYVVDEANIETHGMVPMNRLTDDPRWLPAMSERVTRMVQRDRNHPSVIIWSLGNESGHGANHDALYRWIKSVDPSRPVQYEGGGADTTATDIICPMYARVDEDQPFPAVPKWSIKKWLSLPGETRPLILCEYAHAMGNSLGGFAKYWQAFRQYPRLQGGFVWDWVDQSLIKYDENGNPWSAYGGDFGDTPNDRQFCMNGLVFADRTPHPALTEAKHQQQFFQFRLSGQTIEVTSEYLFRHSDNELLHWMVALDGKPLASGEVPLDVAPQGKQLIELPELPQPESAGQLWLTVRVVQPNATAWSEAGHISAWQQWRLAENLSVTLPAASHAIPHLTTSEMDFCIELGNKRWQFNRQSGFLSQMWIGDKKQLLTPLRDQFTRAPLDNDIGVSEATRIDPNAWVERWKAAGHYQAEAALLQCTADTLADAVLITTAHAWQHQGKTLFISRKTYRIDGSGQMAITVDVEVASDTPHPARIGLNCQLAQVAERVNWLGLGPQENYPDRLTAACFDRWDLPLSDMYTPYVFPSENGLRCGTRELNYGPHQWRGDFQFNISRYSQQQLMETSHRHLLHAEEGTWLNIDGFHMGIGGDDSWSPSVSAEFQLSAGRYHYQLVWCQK

[12] = biological target: T2, Exodeoxyribonuclease V (Escherichia coli (strain K12), UniProt P04993+P07648+P08394); assay: RecBCD inhibition via phage-restricted bacterial growth – absorbance, V66 E. coli, mutant T4 phage, counter-screen for AddAB inhibitor project, dose response (AID 492957); format: functional, cell-based, Escherichia coli str. K-12 substr. MG1655
T2 sequence (P04993 whole entry): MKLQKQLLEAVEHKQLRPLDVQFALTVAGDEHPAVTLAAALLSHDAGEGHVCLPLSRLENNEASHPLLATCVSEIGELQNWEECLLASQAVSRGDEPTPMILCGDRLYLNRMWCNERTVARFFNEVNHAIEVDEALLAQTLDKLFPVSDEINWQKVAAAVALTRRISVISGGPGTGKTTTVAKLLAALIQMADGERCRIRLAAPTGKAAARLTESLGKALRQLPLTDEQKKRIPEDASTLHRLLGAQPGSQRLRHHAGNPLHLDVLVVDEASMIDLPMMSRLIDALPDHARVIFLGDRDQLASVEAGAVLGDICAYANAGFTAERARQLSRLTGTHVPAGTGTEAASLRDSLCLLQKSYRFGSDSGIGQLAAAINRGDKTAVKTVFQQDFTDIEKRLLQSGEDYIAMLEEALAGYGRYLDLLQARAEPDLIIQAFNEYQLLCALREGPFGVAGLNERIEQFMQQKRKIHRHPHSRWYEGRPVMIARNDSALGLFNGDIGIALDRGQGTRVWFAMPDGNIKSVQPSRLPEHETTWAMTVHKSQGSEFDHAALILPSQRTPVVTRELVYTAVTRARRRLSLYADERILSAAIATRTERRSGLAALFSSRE
T2 sequence (P07648 whole entry): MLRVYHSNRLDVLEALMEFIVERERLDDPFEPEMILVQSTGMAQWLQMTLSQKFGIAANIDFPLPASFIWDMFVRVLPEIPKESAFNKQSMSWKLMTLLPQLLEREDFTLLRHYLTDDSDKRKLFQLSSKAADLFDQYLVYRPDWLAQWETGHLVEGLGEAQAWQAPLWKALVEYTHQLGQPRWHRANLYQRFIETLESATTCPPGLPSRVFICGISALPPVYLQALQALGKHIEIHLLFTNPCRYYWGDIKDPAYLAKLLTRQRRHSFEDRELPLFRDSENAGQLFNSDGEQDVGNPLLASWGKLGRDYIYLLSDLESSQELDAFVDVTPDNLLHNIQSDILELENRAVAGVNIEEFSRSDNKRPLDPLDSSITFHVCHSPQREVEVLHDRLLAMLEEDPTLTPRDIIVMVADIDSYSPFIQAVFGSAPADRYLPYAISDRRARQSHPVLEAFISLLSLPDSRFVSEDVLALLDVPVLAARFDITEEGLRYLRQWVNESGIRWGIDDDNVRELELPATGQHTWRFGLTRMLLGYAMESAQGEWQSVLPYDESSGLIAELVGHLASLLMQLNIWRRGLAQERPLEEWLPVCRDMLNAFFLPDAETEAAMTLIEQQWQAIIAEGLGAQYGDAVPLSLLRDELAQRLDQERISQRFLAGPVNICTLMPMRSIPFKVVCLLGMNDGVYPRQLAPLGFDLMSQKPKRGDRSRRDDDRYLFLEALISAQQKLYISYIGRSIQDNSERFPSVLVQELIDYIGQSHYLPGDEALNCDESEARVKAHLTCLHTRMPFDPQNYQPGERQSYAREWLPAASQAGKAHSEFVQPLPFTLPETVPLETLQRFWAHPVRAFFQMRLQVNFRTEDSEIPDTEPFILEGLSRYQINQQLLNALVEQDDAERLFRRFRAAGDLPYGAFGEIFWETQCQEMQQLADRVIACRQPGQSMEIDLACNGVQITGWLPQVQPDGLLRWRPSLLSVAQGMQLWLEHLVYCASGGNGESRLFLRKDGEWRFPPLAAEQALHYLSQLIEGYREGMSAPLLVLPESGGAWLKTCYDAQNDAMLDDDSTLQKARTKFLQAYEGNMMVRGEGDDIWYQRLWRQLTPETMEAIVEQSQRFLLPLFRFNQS
T2 sequence (P08394 whole entry): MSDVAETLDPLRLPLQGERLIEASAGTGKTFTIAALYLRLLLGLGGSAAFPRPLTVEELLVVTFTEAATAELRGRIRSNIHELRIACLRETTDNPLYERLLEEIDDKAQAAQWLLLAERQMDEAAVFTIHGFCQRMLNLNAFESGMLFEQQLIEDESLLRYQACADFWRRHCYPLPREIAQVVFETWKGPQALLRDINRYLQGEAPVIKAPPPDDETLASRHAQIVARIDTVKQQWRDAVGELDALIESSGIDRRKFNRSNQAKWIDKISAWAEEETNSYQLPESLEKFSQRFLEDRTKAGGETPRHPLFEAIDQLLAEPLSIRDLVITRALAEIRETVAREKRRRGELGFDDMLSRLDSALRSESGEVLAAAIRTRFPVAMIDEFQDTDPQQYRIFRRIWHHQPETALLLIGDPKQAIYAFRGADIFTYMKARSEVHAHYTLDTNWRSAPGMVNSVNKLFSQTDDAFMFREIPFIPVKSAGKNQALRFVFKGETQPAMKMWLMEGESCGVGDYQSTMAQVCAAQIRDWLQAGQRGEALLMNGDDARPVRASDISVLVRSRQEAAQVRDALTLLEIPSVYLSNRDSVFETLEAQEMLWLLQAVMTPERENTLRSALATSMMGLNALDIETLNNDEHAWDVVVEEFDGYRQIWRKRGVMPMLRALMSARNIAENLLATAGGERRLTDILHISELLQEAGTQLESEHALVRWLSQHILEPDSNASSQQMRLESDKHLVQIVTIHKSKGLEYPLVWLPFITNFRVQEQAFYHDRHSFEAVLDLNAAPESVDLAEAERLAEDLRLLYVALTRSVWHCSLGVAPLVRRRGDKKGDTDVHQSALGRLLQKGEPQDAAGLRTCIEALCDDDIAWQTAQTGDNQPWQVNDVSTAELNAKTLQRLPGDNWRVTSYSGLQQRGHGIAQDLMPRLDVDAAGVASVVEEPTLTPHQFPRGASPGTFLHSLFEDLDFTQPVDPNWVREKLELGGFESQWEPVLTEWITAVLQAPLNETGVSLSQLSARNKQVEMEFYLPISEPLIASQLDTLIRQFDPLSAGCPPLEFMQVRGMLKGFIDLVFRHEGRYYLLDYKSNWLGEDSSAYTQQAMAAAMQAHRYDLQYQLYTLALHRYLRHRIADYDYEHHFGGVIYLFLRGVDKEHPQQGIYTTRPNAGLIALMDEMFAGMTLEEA

[13] = activation of miR-122 Renilla sensor silencing – cell-based, Huh7 psiCHECK-miR122, Renilla luciferase, cherry-picked, dose response (AID 651956); format: functional;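 also: huh7 hepatoma cells stably carrying a psiCHECK-2 miR-122 sensor plasmid; renilla luciferase signal reporting endogenous miR-122 activity after 48 h compound exposure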
[14] = general mammalian cell viability loss – inhibitor set, cherry-pick, set 2, cytotoxicity control for miR-122 modulator project, dose response (AID 720697); format: functional, cell-based
[15] = PAX8-dependent cell viability loss – plate reader, dry powder, dose response (AID 743049); format: functional, cell-based
[16] = inhibitors acting on PAX2 in cells – cell-based, plate reader, dry powder samples, selectivity assay for PAX8 inhibitor project, dose response (AID 743048); format: functional;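 also: HEK293 cells carrying a WT1 promoter luciferase reporter driven by expressed Pax2; potency is for inhibition of Pax2 driven reporter signal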
[17] = COV434 cell viability loss – plate reader, dry powder, SA7, cytotoxicity control for PAX8 inhibitor project, dose response (AID 743145); format: functional, cell-based
[18] = PAX5 cellular inhibition readout – cell-based, plate reader, dry powder samples, selectivity assay for PAX8 inhibitor project, dose response (AID 743047); format: functional;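 also: HEK293 cells carrying a Pax5 driven CD19 promoter luciferase reporter; potency of inhibitors that lower reporter luminescence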
[19] = growth inhibition of PfATP4-mutant resistant parasites – NITD609-resistant line, SYBR Green, dry powder, dose response (AID 1159571); format: functional, cell-based;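 also: parasites synchronized at ring stage by sorbitol before testing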
[20] = Dd2 malaria parasite growth inhibition potency – SYBR Green, dry powder samples, dose response (AID 1159566); format: functional, cell-based;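 also: potency for growth inhibition with lower SYBR green DNA signal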
[21] = growth inhibition of yeast DHODH-expressing 3D7 parasites – SYBR Green, dry powder samples, dose response (AID 1159570); format: functional, cell-based;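 also: parasite growth measured after 72 hours of compound exposure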
[22] = P. falciparum Dd2 growth inhibitors, dose response, SYBR Green, cherry-picked samples (AID 1159567); format: functional, cell-based
[23] = SNU-C1 cell viability reduction, dose response, CellTiter-Glo luminescence (AID 1117323); format: functional, cell-based
[24] = cytotoxicity toward HT-29 cells – cell-based, CellTiter-Glo luminescence, IC50, dose response (AID 1117330); format: functional
[25] = CellTiter-Glo luminescence survival assay, SW480 colon tumor line, concentration-response curve, half-maximal inhibitory concentration (AID 1117338); format: functional
[26] = RKO cell viability reduction, dose response, CellTiter-Glo luminescence (AID 1117322); format: functional
[27] = Reduced DLD-1 viability, concentration-response, CellTiter-Glo luminescence (AID 1117352); format: functional
[28] = cytotoxicity toward HCT116 cells – cell-based, CellTiter-Glo luminescence, IC50, dose response (AID 1117332); format: functional; conditions: HCT-116
[29] = cytotoxicity toward Colo320 cells – cell-based, CellTiter-Glo luminescence, IC50, dose response (AID 1117334); format: functional; conditions: COLO 320

Protein Tat, sequence (P04608 whole entry): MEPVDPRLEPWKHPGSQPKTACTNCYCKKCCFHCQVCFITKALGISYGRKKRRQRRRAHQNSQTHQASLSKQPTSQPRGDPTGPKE

Structure (SMILES): FC(F)(F)c1cc(-c2ccco2)nc(NCc2cccnc2)n1
- IC50 [1]: > 100 µM (active)

Structure (SMILES): COc1ccc(NC(=O)NC(C)C2CC3CCC2C3)cc1 (configuration not stated)
- IC50 [2]: > 67.5 µM (inactive)
- EC50 [3]: > 67.5 µM (inactive)

Structure (SMILES): CC1CCCCN1CCNC(=O)CC1Oc2ccccc2NC1=O (configuration not stated)
- IC50 [2]: > 67.5 µM (inactive)
- EC50 [3]: > 67.5 µM (inactive)

Structure (SMILES): COc1ccc2nc(NC(=O)C3CCCN(S(=O)(=O)c4cccs4)C3)sc2c1 (configuration not stated)
- IC50 [4]: > 20 µM (inactive)
- CC50 [5]: 35.4 µM (active)

Structure (SMILES): Cc1nn(-c2ccc(Br)cc2)c(=O)c2ccccc12
- EC50 [6]: > 67.6 µM (inactive)
- EC50 [7]: > 67.6 µM (inactive)

Structure (SMILES): O=C(C(Br)=Cc1ccccc1)c1ccccc1
- AC50 [8]: 10.9 µM (active)

Structure (SMILES): O=C(O)c1ccc(N/N=C/C=C/c2ccc([N+](=O)[O-])o2)cc1
- IC50 [9]: 55.5 µM (inactive)
- AC50 [10]: 3.34 µM (active)
- IC50 [11]: 33 µM (active)
- IC50 [12]: > 119 µM (inactive)

Structure (SMILES): O=C(Nc1ccc(F)cc1)N1CCCCN2[C@H](CO)[C@@H](c3ccc(C#Cc4ccccc4)cc3)[C@H]2C1
- AC50 [8]: 22.2 µM (active)
- AC50 [13]: 10.5 µM (active)
- AC50 [14]: 8.31 µM (active)

Structure (SMILES): N#C[C@@H]1[C@@H](c2ccc(C3=CCCCC3)cc2)[C@@H](CO)N1C(=O)NC1CCCCC1
- AC50 [15]: 10.6 µM (active)
- AC50 [16]: > 32 µM (inactive)
- AC50 [17]: 67.3 µM (active)
- AC50 [18]: 29.3 µM (active)

Structure (SMILES): O=C(Cc1ccccc1)N1CC(=O)N2[C@H](CO)[C@H](c3ccc(C#Cc4ccccc4)cc3)[C@H]2C1
- AC50 [19]: 28.8 nM (active)
- AC50 [20]: 29.1 nM (active)
- AC50 [21]: 55.4 nM (active)
- AC50 [22]: < 300 nM (active)

Structure (SMILES): OC[C@@H](O)[C@H](O)[C@H](O)[C@@H](O)CO [GALACTITOL]
- IC50 [23]: > 20 µM (inactive)
- IC50 [24]: > 20 µM (inactive)
- IC50 [25]: > 20 µM (inactive)
- IC50 [26]: > 20 µM (inactive)
- IC50 [27]: > 20 µM (inactive)
- IC50 [28]: > 20 µM (inactive)
- IC50 [29]: > 20 µM (inactive)
